The values that follow come from US7858637B2, “Administration of TLR7 ligands and prodrugs thereof for treatment of infection by hepatitis C virus” (priority 2003, dated 2010).

Molecules are shown by their SMILES. Structures can show the parent of a compound that is named as a salt. Where two headings read alike, the source gives them in different places.

The subject of data set [1] is HCV. Particulars: treatment of HCV, Pockros et al., Gastroenterology 2003; cited from earlier work.
Data set [2] relates to human peripheral blood mononuclear cells (PBMC). The data set is described as follows: PBMC assay of interferon alpha release (masking). Particulars: Homo sapiens, PBMC, read-out: Amount of INFa relative to that induced by isatoribine at 100 μM. In kind it is cell-based. On the procedure:
A typical experiment would use human peripheral blood mononuclear cells (PBMC) isolated from a healthy donor and placed in replicate cell culture wells; typically, 2×10^6 to 5×10^6 cells are placed in each well. The PBMC are incubated in the absence of test compounds at 37° C. in a humidified atmosphere containing 5% CO2 for 24 hours to allow stabilization to the culture conditions, and then 100 micromolar isatoribine, the TLR7 ligand and a corresponding TLR7 ligand prodrug are added to separate wells containing PBMC from the same donor; untreated controls are included. The concentrations of TLR7 ligand and TLR7 ligand prodrug may be varied to suit the particular experiment, and the PBMC cultures are then incubated at 37° C. in a humidified atmosphere containing 5% CO2 for a period of time ranging from two hours to 48 hours. Samples of cell culture supernate media are taken during the incubation. These are assayed for cytokine production by ELISA. Additionally the amount of TLR7 ligand and TLR7 ligand prodrug remaining at the end of the incubation may be assayed by LC-MS. Cytokine production is calculated relative to production in the isatoribine control, following subtraction of the cytokine production in untreated controls.
Thus, if the TLR7 ligand generates more interferon alpha (a conveniently measured cytokine) than does the corresponding TLR7 ligand prodrug after a similar duration of exposure and concentration, the TLR7 ligand prodrug may be deemed a “masked” TLR7 ligand prodrug.

In data set [3] the test system is HCV replicon. The data set is described as follows: HCV replicon-based viral bioassay with supernatants of compound-treated PBMC. In kind it is cell-based, hepatitis C virus. On the procedure:
A quantitative assay was developed which is based on measuring the activity of the luciferase reporter gene that was integrated into an HCV replicon. By using this system, interferons from TLR7 agonist-treated PBMCs were measured and their inhibitory activity was assessed using the luciferase reporter replicon.
Human PBMCs isolated from a healthy donor were placed in replicate cell culture wells (5×10^6 cells per well). The PBMCs are incubated in the absence of test compounds at 37° C. in a humidified atmosphere containing 5% CO2 for 24 hours to allow stabilization to the culture conditions, and then the TLR7 ligand or a drug free control is added to replicate wells containing PBMCs from the same donor. The concentrations of TLR7 ligand may be varied to suit the particular experiment, and the PBMC cultures are then incubated at 37° C. in a humidified atmosphere containing 5% CO2 for eight hours. Samples of cell culture supernatant are taken at the eight hour time point (or twenty four hour time point in case of Loxoribine and its prodrugs) from TLR7 ligand treated and control wells and are assayed for interferon-alpha production by ELISA. Supernatants from compound-treated cells and a no-drug control were diluted at 1:10, 1:100, and 1:1000 in RPMI media and applied to a 96-well plate of Huh7 hepatocyte cells containing the luciferase reporter replicon. Cells were incubated for 48 hours at 37° C. in a tissue culture incubator.
After the incubation period, the 96-well plates are washed 2× with PBS and are lysed with passive lysis buffer (Promega). Plates are shaken at room temperature for 20 minutes and standard luciferase assay reagent (Promega) is added to each well by injection and the plate is read on an Lmax luminometer (Molecular Devices).
A supernatant collected from PBMC cells non-exposed to the compound and diluted as specified in the first column was used as a control (“Blank supernatant”). The PBMC cells were isolated from a single blood donor as specified.
On the technique in general: Replicon systems follow genome replication, usually without infectious particles.

For data set [4], the target named is T1, human TLR7 (Homo sapiens, UniProt Q9NYK1).
T1 sequence (Q9NYK1 27-1049): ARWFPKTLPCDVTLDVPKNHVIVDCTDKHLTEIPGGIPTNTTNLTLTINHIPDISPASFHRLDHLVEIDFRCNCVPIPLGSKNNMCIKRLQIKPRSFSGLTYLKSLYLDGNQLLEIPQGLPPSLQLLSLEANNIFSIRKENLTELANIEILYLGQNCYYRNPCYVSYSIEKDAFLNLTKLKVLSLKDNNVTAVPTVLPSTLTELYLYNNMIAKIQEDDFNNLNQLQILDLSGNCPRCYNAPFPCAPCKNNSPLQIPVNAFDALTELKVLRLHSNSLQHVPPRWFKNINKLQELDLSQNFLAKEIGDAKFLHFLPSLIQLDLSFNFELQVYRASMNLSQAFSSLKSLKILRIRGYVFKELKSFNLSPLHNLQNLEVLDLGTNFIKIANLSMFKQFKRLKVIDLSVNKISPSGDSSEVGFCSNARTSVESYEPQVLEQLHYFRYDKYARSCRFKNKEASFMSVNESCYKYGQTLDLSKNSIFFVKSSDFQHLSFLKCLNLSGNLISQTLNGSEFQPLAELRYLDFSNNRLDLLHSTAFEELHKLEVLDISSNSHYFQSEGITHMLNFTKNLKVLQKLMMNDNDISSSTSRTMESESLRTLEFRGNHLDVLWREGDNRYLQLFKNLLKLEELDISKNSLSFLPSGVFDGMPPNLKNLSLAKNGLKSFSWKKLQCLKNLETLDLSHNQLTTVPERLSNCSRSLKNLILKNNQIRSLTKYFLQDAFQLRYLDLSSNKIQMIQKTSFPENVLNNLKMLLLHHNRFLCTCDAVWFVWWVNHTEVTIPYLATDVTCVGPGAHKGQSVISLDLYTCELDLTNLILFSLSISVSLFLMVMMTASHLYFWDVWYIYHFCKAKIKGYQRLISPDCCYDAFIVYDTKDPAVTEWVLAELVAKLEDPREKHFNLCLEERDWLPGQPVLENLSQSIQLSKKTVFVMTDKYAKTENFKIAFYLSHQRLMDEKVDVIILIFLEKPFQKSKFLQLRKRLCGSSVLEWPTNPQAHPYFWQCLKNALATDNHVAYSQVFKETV
The data set is described as follows: HEK293-hTLR7 NF-kB luciferase reporter (C23) assay. Particulars: read-out: mean fold induction of luciferase activity compared to the no drug control. On the procedure:
A stable HEK293-hTLR7 cell line was obtained from Invivogen (San Diego, Calif.), transfected with pNiFty2-Luc, an NF-kB inducible luciferase reporter plasmid (Invivogen) and (dual) stable transfectants selected. The resultant dual (hTLR7/pNiFty2-Luc) cell lines were functionally tested by response to loxoribine and isatoribine as measured by fold luciferase induction relative to a no drug control. […] See, e.g., Hemmi H. et al., Nat.
For a typical C23 assay, cells are seeded at 6×10^4 cells/well in 96 well plates and 4-24 hours later are treated with various concentrations of compound. After 2-48 hours exposure the cell monolayers are lyzed with passive lysis buffer (Promega) and the firefly luciferase assay carried out using the luciferase assay reagent (Promega) as specified by the manufacturer. Relative luciferase activities are expressed as folds of induction compared to the no drug control. A two-fold induction over background is considered a bona fide TLR7 agonist, dependent on this being a statistically significant increase.
In Table 1, isatoribine, was added to C23 cells for forty-eight hours, and the cells were then harvested and assayed for luciferase activity. Each time-point was assayed in triplicate.
Each time-point was assayed in triplicate.
(A reporter such as luciferase makes a cellular process visible.)

As a reminder, the melting point is the temperature of the solid-liquid transition. Consider `Nc1ncc2sc(=O)n([C@@H]3O[C@H](CO)[C@@H](O)[C@H]3O)c2n1`, for which the melting point was 220 °C (dec.).
The molecule `CC(=O)OC[C@H]1O[C@@H](n2c(=O)sc3c(=O)[nH]c(N)nc32)[C@H](OC(C)=O)[C@@H]1OC(C)=O` registered a melting point of 198 to 199 °C.
`CCOCc1nc2c(N)nc3ccccc3c2n1CC(C)(C)O` [Compound 38, 1-(4-amino-2-ethoxymethyl-imidazo[4,5-c]quinolin-1-yl)-2-methyl-propan-2-ol]: in data set [1], the “anti-HCV effect at tolerated oral doses” value is “failed to show anti-HCV effect”. Further, the Emax at 100 µM in data set [2] (24 h) was found to be 9%. Moreover, the HCV replicon inhibition in data set [3] (Table 6 No. 1, PBMC exposed 8 hours to 10 μM, donor FL75287, supernatant dilution 1:10) is listed as 100%; in data set [3] (Table 6 No. 1, PBMC exposed 8 hours to 10 μM, donor FL75287, supernatant dilution 1:100), 98%; in data set [3] (Table 6 No. 1, PBMC exposed 8 hours to 10 μM, donor FL75287, supernatant dilution 1:1000), 21%; in data set [3] (Table 6 No. 2, PBMC exposed 8 hours to 10 μM, donor FL75287, supernatant dilution 1:10), 100%; in data set [3] (Table 6 No. 2, PBMC exposed 8 hours to 10 μM, donor FL75287, supernatant dilution 1:100), 88%; in data set [3] (Table 6 No. 2, PBMC exposed 8 hours to 10 μM, donor FL75287, supernatant dilution 1:1000) it was 6%.
`CC(=O)O[C@@H]1[C@H](OC(C)=O)[C@@H](CO)O[C@H]1n1c(=O)sc2cnc(N)nc21` [Compound 93, 5-Amino-3-(2′,3′-di-O-acetyl-β-D-ribofuranosyl)-3H-thiazolo[4,5-d]pyrimidin-2-one] returned a melting point of 109 to 111 °C. In addition, the Emax at 100 µM in data set [2] (Table 9, 100 μM, 24 hours exposure, same blood donor) worked out at 0%.
Turning to `COCCOc1nc(N)c2nc(O)n(Cc3ccccc3)c2n1` [Compound 29, 6-Amino-9-benzyl-2-(2-methoxy-ethoxy)-9H-purin-8-ol], the fold induction at 1 µM in data set [4] worked out at 20.8. The fold induction at 3.2 µM in data set [4] turned out to be 37.3. Further, the fold induction at 10 µM in data set [4] turned out to be 47.5. Moreover, the fold induction at 32 µM in data set [4] came out at 48.4. Further, the Emax at 0.1 µM in data set [2] (Table 14, 0.1 μM, 24 hours exposure) turned out to be 128%. Further, the HCV replicon inhibition in data set [3] (Table 8 No. 1, PBMC exposed 8 hours to 0.1 μM, a TFA salt, donor FL76418, supernatant dilution 1:10) was 100%; in data set [3] (Table 8 No. 1, PBMC exposed 8 hours to 0.1 μM, a TFA salt, donor FL76418, supernatant dilution 1:100), 73%; in data set [3] (Table 8 No. 1, PBMC exposed 8 hours to 0.1 μM, a TFA salt, donor FL76418, supernatant dilution 1:1000) it was 0%; in data set [3] (Table 8 No. 2, PBMC exposed 8 hours to 0.1 μM, a TFA salt, donor FL76418, supernatant dilution 1:10) it was 100%; in data set [3] (Table 8 No. 2, PBMC exposed 8 hours to 0.1 μM, a TFA salt, donor FL76418, supernatant dilution 1:100), 64%; in data set [3] (Table 8 No. 2, PBMC exposed 8 hours to 0.1 μM, a TFA salt, donor FL76418, supernatant dilution 1:1000) it was 9%.
Turning to `CC(C)[C@H](N)C(=O)OC[C@H]1O[C@@H](n2c(=O)sc3c(=O)[nH]c(N)nc32)[C@H](O)[C@@H]1O` (as salt: hydrochloride) [Compound 24, 5-Amino-3-(5′-O-L-valinyl-β-D-ribofuranosyl)thiazolo[4,5-d]pyrimidine-2,7-dione Dihydrochloride], the melting point was 166 to 168 °C (dec.).
